Positions of bridges follow the written chain, without caps; N, C: chain ends. No end group written: not given here.
Key:
[1] = test system: undifferentiated RAW264 cells; test: Cell-death inducing activity on undifferentiated RAW264 cells, MTT method; type: cell-based, mouse; conditions: Mus musculus, RAW264.7; 24 hours incubation, MTT; read-out: ED50 level of cell-death inducing activity to undifferentiated RAW264 cells, MTT
Protocol: The cell-death inducing activities to the undifferentiated RAW264 cells were investigated by the MTT method (J. Immunol. Methods, Vol. 65, pp 55-63 (1983). The RAW 264 cells were plated on a 96-well plate at a density of 40,000 cells/100 μl and then incubated for 24 hours. After the 24-hour incubation, 50 μl of a culture medium containing a three-fold concentration of the drug was added and then incubated for 24 hours to investigate the cell-death inducing activity. Two hours before the measurement of the cell-death inducing activity, 15 μl of 0.5% MTT-PBS (phosphate buffer saline) was added and incubated. After that, the residue from which the culture solution was removed was dissolved in 100 μl of DMSO (dimethyl sulfoxide) and the absorbance at 570 nm (a reference wave length of 630 nm) was measured, followed by calculating the ED50 level of the cell-death inducing activity.

[2] = test system: mature osteoclasts; test: Cell-death (apoptosis) inducing activity on mature osteoclasts, number of TRAP-stained multinuclear cells; type: cell-based, mouse; conditions: Mus musculus, Osteoclast; RAW264-derived mature osteoclasts, 24 hours incubation, TRAP staining; read-out: ED50 level of cell-death inducing activity to mature osteoclasts, Number of cells
Protocol: Using 29 different reveromycin A derivatives synthesized as described above, the cell-death inducing activities on the mature osteoclasts and undifferentiated macrophage-like cells derived from a mouse (RAW264 cells) were examined, respectively. The RAW264 cells, a mouse-macrophage cell line, were suspended in a 10% FBS-αMEM (manufactured by Gibco BRL Co., Ltd.) and then 12,000 cells/100 μl were inoculated in a 96-well plate. After 1-hour incubation, 100 μl of a culture medium containing RANKL ([…]) and PD98059 (40 μM) were added (final concentration: RANKL […] and PD98059 20 μM) and then incubated for 4 days to allow the differentiation of the cells to mature osteoclasts (J. Biol. Chem. Vol. 277, pp. 47366-47372 (2002)). Furthermore, on the second day of the culture, the half of the culture medium was replaced with new one. From each well of the plate where the cells were differentiated to the mature osteoclasts, 100 μl/well of the culture medium was removed. […] The apoptosis inducing activity was confirmed by the observation of agglutination of nuclei stained with 10 μM Hoechst 33258 for 10-minututes.

[3] = test system: bone resorption due to parathyroid hormone (PTH); test: Serum calcium in TPTX rats with hypercalcemia by continuous PTH infusion; type: in vivo, SD rats; conditions: comparison of calcitonin with reveromycin A derivatives
Protocol: The bone resorption inhibitory effects of the reveromycin A derivatives were examined by measuring the level of serum calcium released in the blood by the action of bone resorption. SD rats were subjected to an operation of extracting the thyroid glands and the parathyroid glands (TPTX). Next day, a decrease in serum calcium was confirmed and then the continuous infusion of the parathyroid hormone (PTH) was carried out, thereby creating rats each having hypercalcemia by accelerating the bone resorption.
At 12 hours from the initiation of PTH injection, the reveromycin A derivatives ([…]) or a sodium salt thereof ([…]) were administered and the level of serum calcium was then measured in time-course for 24 hours.

CCCC[C@@]1(O)CC[C@]2(CC[C@H](C)[C@@H](C/C=C(C)/C=C/[C@H](OC)[C@@H](C)/C=C/C(=O)OC)O2)O[C@H]1/C=C/C(C)=C/C(=O)OC (mixture of isomers) [Compound 7]
CC50 [1]: > 169 µM
EC50 [2]: > 51 µM

CCCC[C@@]1(O)CC[C@]2(CC[C@H](C)[C@@H](C/C=C(C)/C=C/[C@H](O)[C@@H](C)/C=C/C(=O)O)O2)O[C@H]1/C=C/C(C)=C/C(=O)O (mixture of isomers) [Compound 11]
CC50 [1]: > 178 µM
EC50 [2]: 41 µM

CCCC[C@]1(C(/C=C/C(C)=C/C(=O)O)OC(=O)CCC(=O)O)CC[C@]2(CC[C@H](C)[C@@H](C/C=C(C)/C=C/[C@H](O)[C@@H](C)/C=C/C(=O)O)O2)O1 (some centres unmarked) [Compound 1]
CC50 [1]: 132 µM
EC50 [2]: > 45 µM

CCCC[C@@]1(OC(=O)CCC(=O)O)CC[C@]2(CC[C@H](C)[C@@H](CCO)O2)O[C@H]1/C=C/C(C)=C/C(=O)O [Compound 3]
CC50 [1]: > 6 µM
EC50 [2]: > 6 µM

CCCC[C@@]1(OC(=O)CCC(=O)O)CC[C@]2(CC[C@H](C)[C@@H](C/C=C(\C)CO)O2)O[C@H]1/C=C/C(C)=C/C(=O)O [Compound 4]
CC50 [1]: > 5.6 µM
EC50 [2]: > 5.6 µM

CCCC[C@@]1(OC(=O)CCC(=O)O)CC[C@]2(CC[C@H](C)[C@@H](C/C=C(\C)COC(=O)CCC(=O)O)O2)O[C@H]1/C=C/C(C)=C/C(=O)O [Compound 5]
CC50 [1]: > 157 µM
EC50 [2]: > 47 µM

CCCC[C@]1([C@@H](O)/C=C/C(C)=C/C(=O)O)CC[C@]2(CC[C@H](C)[C@@H](C/C=C(C)/C=C/[C@H](O)[C@@H](C)/C=C/C(=O)O)O2)O1 [Compound 10]
CC50 [1]: > 178 µM
EC50 [2]: > 54 µM

CCCC[C@@]1(OC(=O)CCC(=O)OC)CC[C@]2(CC[C@H](C)[C@@H](C/C=C(C)/C=C/[C@H](O[Si](C)(C)C(C)(C)C)[C@@H](C)/C=C/C(=O)OC)O2)O[C@H]1/C=C/C(C)=C/C(=O)O [Compound 12]
CC50 [1]: 1 µM
EC50 [2]: 0.6 µM

CCCC[C@@]1(OC(=O)CCC(=O)O)CC[C@]2(CC[C@H](C)[C@@H](C/C=C(C)/C=C/[C@H](O)[C@@H](C)/C=C/C(=O)OC)O2)O[C@H]1/C=C/C(C)=C/C(=O)OC [Compound 13]
CC50 [1]: 7.6 µM
EC50 [2]: 2.5 µM

CCCC[C@@]1(OC(=O)CCC(=O)OC)CC[C@]2(CC[C@H](C)[C@@H](C/C=C(C)/C=C/[C@H](O)[C@@H](C)/C=C/C(=O)O)O2)O[C@H]1/C=C/C(C)=C/C(=O)OC [Compound 14]
CC50 [1]: 25 µM
EC50 [2]: 3.3 µM

CCCC[C@@]1(OC(=O)CCC(=O)O)CC[C@]2(CC[C@H](C)[C@@H](C/C=C(C)/C=C/[C@H](O)[C@@H](C)/C=C/C(=O)OC)O2)O[C@H]1/C=C/C(C)=C/C(=O)O [Compound 15]
CC50 [1]: 25 µM
EC50 [2]: 5.8 µM

CCCC[C@@]1(OC(=O)CCC(=O)OC)CC[C@]2(CC[C@H](C)[C@@H](C/C=C(C)/C=C/[C@H](O)[C@@H](C)/C=C/C(=O)OC)O2)O[C@H]1/C=C/C(C)=C/C(=O)OC [Compound 16]
CC50 [1]: > 142 µM
EC50 [2]: 26 µM

CCCC[C@@]1(OC)CC[C@]2(CC[C@H](C)[C@@H](C/C=C/C(C)=C/C(=O)O)O2)O[C@H]1/C=C/C(C)=C/C(=O)O [Compound 17]
EC50 [2]: > 61 µM

CCCC[C@@]1(OC(=O)CCC(=O)OC)CC[C@]2(CC[C@H](C)[C@@H](C/C=C(C)/C=C/C(C)O)O2)O[C@H]1/C=C/C(C)=C/C(=O)OC (some centres unmarked) [Compound 19]
CC50 [1]: > 50 µM
EC50 [2]: 36 µM

CCCC[C@@]1(OC(=O)CCC(=O)OC)CC[C@]2(CC[C@H](C)[C@@H](C/C=C(C)/C=C/C(O)c3ccccc3)O2)O[C@H]1/C=C/C(C)=C/C(=O)OC (some centres unmarked) [Compound 20]
CC50 [1]: > 150 µM
EC50 [2]: > 45 µM

CCCC[C@@]1(OC(=O)CCC(=O)OC)CC[C@]2(CC[C@H](C)[C@@H](C/C=C(C)/C=C/[C@H](O)[C@@H](C)/C=C/C(=O)O)O2)O[C@H]1/C=C/C(C)=C/C(=O)O [Compound 21]
CC50 [1]: 21 µM
EC50 [2]: 7.3 µM

CCCC[C@@]1(OC(=O)CCC(=O)O)CC[C@]2(CC[C@H](C)[C@@H](C/C=C(C)/C=C/[C@H](O)[C@@H](C)/C=C/C(=O)O)O2)O[C@H]1/C=C/C(C)=C/C(=O)OC [Compound 22]
CC50 [1]: 53 µM
EC50 [2]: 9.3 µM

CCCC[C@@]1(OC(=O)CCC(=O)O)CC[C@]2(CC[C@H](C)[C@@H](C/C=C(C)/C=C/C(C)O)O2)O[C@H]1/C=C/C(C)=C/C(=O)OC (some centres unmarked) [Compound 23]
CC50 [1]: > 17 µM
EC50 [2]: > 17 µM

CCCC[C@@]1(OC(=O)CCC(=O)O)CC[C@]2(CC[C@H](C)[C@@H](C/C=C(C)/C=C/C(O)c3ccccc3)O2)O[C@H]1/C=C/C(C)=C/C(=O)OC (some centres unmarked) [Compound 24]
CC50 [1]: > 15 µM
EC50 [2]: > 15 µM

CCCC[C@@]1(OC(=O)CCC(=O)O)CC[C@]2(CC[C@H](C)[C@@H](C/C=C(C)/C=C/[C@@H](C)O)O2)O[C@H]1/C=C/C(C)=C/C(=O)OC [Compound 25]
CC50 [1]: > 17 µM
EC50 [2]: > 17 µM

CCCC[C@@]1(OC(=O)CCC(=O)O)CC[C@]2(CC[C@H](C)[C@@H](C/C=C(C)/C=C/[C@H](OC)[C@@H](C)/C=C/C(=O)O)O2)O[C@H]1/C=C/C(C)=C/C(=O)O [Compound 26]
CC50 [1]: > 148 µM
EC50 [2]: > 44 µM

CCCC[C@@]1(OC)CC[C@]2(CC[C@H](C)[C@@H](C/C=C(C)/C=C/[C@H](O)[C@@H](C)/C=C/C(=O)O)O2)O[C@H]1/C=C/C(C)=C/C(=O)O [Compound 1390-II]
EC50 [2]: > 5.2 µM

CCCC[C@]1(C(/C=C/C(C)=C/C(=O)O)OC)CC[C@]2(CC[C@H](C)[C@@H](C/C=C(C)/C=C/[C@H](O)[C@@H](C)/C=C/C(=O)O)O2)O1 (some centres unmarked) [Compound 1392-II]
CC50 [1]: > 174 µM
EC50 [2]: > 52 µM

CCCC[C@@]1(OC(=O)CCC(=O)O)CC[C@]2(CC[C@H](C)[C@@H](C/C=C(C)/C=C/[C@H](O)[C@@H](C)/C=C/C(=O)O)O2)O[C@H]1/C=C/C(C)=C/C(=O)O [Reveromycin A, reveromycin A, reference compound]
CC50 [1]: 24 µM
EC50 [2]: 0.18 µM

calcitonin (CGNLSTCMLGTYTQDFNKFHTFPQTAIGVGAP-NH2; disulfide 1-7; ends not checked; UniProt P01258 85-116, looked up) [reference compound]
duration of inhibitory action on bone resorption [3]: shorter inhibitory action on bone resorption

Source: patent US20060173069A1, “Therapeutic agent for hyperpotassemia and bone disease” (RIKEN, priority 2003, published 2006)
